# Literature values as cited in patent publication US6001802A, “Platelet-derived growth factor analogues” (Trigen Limited, priority 1993, dated 1999).
# Where no end group is shown, it is not given here.
# How the values were obtained:
# [1] = target: PDGF β-receptors (Homo sapiens, UniProt P09619); settings: reference [6]
# [2] = tested on: smooth muscle cells of injured arteries; settings: administration of PDGF, rat angioplasty model [19]
# Sequence of PDGF β-receptors (P09619 33-1106): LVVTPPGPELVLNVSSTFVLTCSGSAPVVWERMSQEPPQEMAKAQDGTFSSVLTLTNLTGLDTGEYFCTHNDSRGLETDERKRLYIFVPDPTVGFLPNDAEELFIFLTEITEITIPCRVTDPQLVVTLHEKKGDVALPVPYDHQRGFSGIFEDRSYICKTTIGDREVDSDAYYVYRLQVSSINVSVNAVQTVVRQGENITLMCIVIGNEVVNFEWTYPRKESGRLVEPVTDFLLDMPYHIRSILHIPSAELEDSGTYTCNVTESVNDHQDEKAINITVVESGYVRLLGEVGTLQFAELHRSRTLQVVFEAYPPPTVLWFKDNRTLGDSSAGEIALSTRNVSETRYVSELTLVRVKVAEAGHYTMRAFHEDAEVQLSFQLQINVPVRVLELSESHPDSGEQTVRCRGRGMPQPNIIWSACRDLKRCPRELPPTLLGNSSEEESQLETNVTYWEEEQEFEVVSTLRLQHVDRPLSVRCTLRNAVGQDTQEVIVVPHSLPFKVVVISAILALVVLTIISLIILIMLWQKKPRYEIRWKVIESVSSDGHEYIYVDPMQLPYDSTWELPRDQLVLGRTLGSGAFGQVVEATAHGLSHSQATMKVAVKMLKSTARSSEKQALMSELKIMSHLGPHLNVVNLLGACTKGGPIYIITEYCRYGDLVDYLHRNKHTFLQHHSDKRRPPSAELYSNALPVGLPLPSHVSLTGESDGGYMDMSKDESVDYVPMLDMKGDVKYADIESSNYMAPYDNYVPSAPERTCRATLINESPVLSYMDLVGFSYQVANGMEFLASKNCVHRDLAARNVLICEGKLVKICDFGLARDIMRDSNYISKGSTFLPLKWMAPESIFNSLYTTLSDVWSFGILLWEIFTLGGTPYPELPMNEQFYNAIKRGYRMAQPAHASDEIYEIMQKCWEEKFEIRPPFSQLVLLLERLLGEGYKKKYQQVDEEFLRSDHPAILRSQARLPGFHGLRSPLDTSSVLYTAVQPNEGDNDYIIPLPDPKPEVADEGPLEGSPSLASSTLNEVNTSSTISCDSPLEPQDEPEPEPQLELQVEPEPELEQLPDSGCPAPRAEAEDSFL
antagonist for PDGF [1],Substance,SMC migration from the media to the intima [2],SMC proliferation in the media [2]
effective as an antagonist for PDGF,ANFLVW - - - EIVRKKP (also: N-terminal ANFLVW segment joined by an unspecified link (- - -)) [literature peptide of PDGF-B chain residues 35-40 and 78-83 [6]],,
,"PDGF: 28-31 KD dimeric, highly basic glycoprotein, potent mitogen for connective tissue cells",20 fold,2-3 fold
